Experimental data published in patent publication US20230357242A1, “COMPOUND AS AKT KINASE INHIBITOR” (CHIA TAI TIANQING PHARMACEUTICAL GROUP CO., LTD., priority 2020, published 2023).
Read-outs that look alike come from different tables or passages of the source.

Tests used:
LNcap cells = assay: Inhibitory effect on proliferation of LNcap cells (CCK-8, 72 h); assay type: cell-based; details: Homo sapiens
Procedure: A dish of LNcap cells (human prostate cancer cells with PTEN deficiency) growing at log phase and in good conditions were taken and digested for 3 min by using 1 mL of pancreatin, then the mixture was added with 4 mL of complete culture medium to terminate digestion, and the cells were added to a centrifuge tube. 20 μL of cells were taken and counted, the required number of cells (mL) was pipetted and centrifuged at 1200 rpm for 5 min, the supernatant was discarded, and an appropriate amount of plating medium (RPMI medium+5% FBS+1% sodium pyruvate+1% glutamine) was added to adjust the cell density to 3×10^4 cells/mL. The cells were seeded on a 96-well plate at 100 μL/well using a multi-channel pipette and cultured in a cell incubator at 37° C., 5% CO2 and saturated humidity. After incubation overnight, compounds were loaded using a nanoliter pipettor, 2 duplicate wells were set for each concentration, and cells without compound were used as negative controls. After 72 h, CCK-8 was added at 10 μL/well for incubation for 4 h, then absorbance was measured at 450 nm with an Envision plate reader, and inhibition rate was calculated. Inhibition rate (%)=(mean value of negative control group−mean value of experimental group)/(mean value of negative control group−mean value of blank group)×100%. A dose-response curve was fitted by four-parameter analysis, with the logarithm of compound concentration as abscissa and inhibition rate as ordinate, so that IC50 was calculated.

AKT1 (S473) = biological target: T1, AKT1 (S473) (Homo sapiens, UniProt P31749); assay: Inhibitory effect on phosphorylation of LNcap cells AKT1 (S473); assay type: cell-based; details: 1 h incubation
T1 construct: endogenous in cells; host or cells: LNcap cells
T1 sequence (P31749 whole entry): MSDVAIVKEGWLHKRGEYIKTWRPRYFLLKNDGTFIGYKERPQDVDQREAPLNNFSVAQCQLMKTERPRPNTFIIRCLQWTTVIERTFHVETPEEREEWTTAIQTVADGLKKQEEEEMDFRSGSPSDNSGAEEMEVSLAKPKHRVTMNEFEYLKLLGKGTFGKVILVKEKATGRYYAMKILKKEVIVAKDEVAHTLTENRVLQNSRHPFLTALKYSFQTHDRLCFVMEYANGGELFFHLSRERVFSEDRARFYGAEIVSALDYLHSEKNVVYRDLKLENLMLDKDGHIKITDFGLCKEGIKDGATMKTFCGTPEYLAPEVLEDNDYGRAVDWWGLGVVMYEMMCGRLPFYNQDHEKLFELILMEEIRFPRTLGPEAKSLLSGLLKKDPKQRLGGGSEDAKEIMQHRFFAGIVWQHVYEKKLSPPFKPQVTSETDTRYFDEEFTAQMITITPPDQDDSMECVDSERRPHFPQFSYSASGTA
Procedure: LNcap cells AKT1 (S473) growing at log phase were taken, digested with 1 mL of pancreatin for 3 min, and added with 4 mL of complete medium to terminate digestion. The cells were added to a centrifuge tube. 20 μL of cells were taken and counted, the required number of cells (mL) was taken and centrifuged at 1200 rpm for 5 min, and a plating medium (2% FBS+phenol-free red 1640 base medium+1% sodium pyruvate+1% glutamine) was added to adjust the cell density to about 1×10E6 cells/mL. The cells were plated (96 wells) at the above cell density (100 μL/well), and cultured in a cell incubator at 37° C., 5% CO2 overnight; the next day, according to the plate distribution, the corresponding compound was sprayed using a nanoliter pipettor and incubated for 1 h at 37° C. in a cell incubator containing 5% CO2; the supernatant was discarded, and the plate was added with 40 μL of lysis buffer (1×) containing blocking buffer and incubated by shaking at room temperature for 30 min. After the mixture was mixed, 16 μL of lysate was transferred to another 384-well small-volume white plate. The plate was added with 4 μL of pre-mixed antibody (v/v) in assay buffer, covered, centrifuged to mix well, and incubated overnight at room temperature. The 665 nm/620 nm signal value was detected using a PE Envision multi-functional microplate reader, and IC50 was calculated by four-parameter fitting.

[1] = LNcap cells, CCK-8, read-out: LNcap cells IC50
[2] = LNCaP, read-out: LNcap cells IC50

SMILES	IC50 (LNcap cells; [1]) [nM]	IC50 (LNcap cells; [2]) [nM]	IC50 (AKT1 (S473)) [nM]
CC1CC(N2CCCC2=O)CCN1c1cccc(-c2ccc3nc(-c4cccnc4N)n(-c4ccc(C5(N)CCC5)cc4)c3n2)c1 (centres unmarked) [Compound 48]	6.9		
CC1CN(C2COC2)CCN1c1cccc(-c2ccc3nc(-c4cccnc4N)n(-c4ccc(C5(N)CCC5)cc4)c3n2)c1 (centres unmarked) [Compound 10]		21	47
[2H]C([2H])([2H])N(C(C)=O)C1CCN(c2cccc(-c3ccc4nc(-c5cccnc5N)n(-c5ccc(C6(N)CCC6)cc5)c4n3)c2)CC1 [Compound 54]		2.2	
CC(=O)N(C)C1CCCN(c2cccc(-c3ccc4nc(-c5cccnc5N)n(-c5ccc(C6(N)CCC6)cc5)c4n3)c2)C1 (centres unmarked) [Compound 27]	20		
CC(=O)N1CCC2(C1)CN(c1cccc(-c3ccc4nc(-c5cccnc5N)n(-c5ccc(C6(N)CCC6)cc5)c4n3)c1F)C2 [Compound 37]	7.6		11
Nc1ncccc1-c1nc2ccc(-c3cccc(N4CCN(C5COC5)CC4)c3)nc2n1-c1ccc(C2(N)CCC2)cc1 [Compound 11]	12		19
Nc1ncccc1-c1nc2ccc(-c3cccc(N4CCC(N5CCCS5(=O)=O)CC4)c3F)nc2n1-c1ccc(C2(N)CCC2)cc1 [Compound 42]	21		
CC1CN(c2cccc(-c3ccc4nc(-c5cccnc5N)n(-c5ccc(C6(N)CCC6)cc5)c4n3)c2F)CCC1N1CCCC1=O (centres unmarked) [Compound 46]	7.5		
CN(C1CCN(c2cccc(-c3ccc4nc(-c5cccnc5N)n(-c5ccc(C6(N)CCC6)cc5)c4n3)c2F)CC1)S(C)(=O)=O [Compound 32]	4.3		11
[2H]C([2H])([2H])N(C(C)=O)C1CCN(c2cccc(-c3ccc4nc(-c5cccnc5N)n(-c5ccc(C6(N)CCC6)cc5)c4n3)c2F)CC1 [Compound 55]	2.1		7.1
CC(=O)N(C)[C@@H]1C[C@H]2CC[C@@H](C1)N2c1cccc(-c2ccc3nc(-c4cccnc4N)n(-c4ccc(C5(N)CCC5)cc4)c3n2)c1 [Compound 43]	47		
Nc1ncccc1-c1nc2ccc(-c3cccc(N4CC5(COC5)C4)c3)nc2n1-c1ccc(C2(N)CCC2)cc1 [Compound 13]		20	
CS(=O)(=O)N1CC2(CN(c3cccc(-c4ccc5nc(-c6cccnc6N)n(-c6ccc(C7(N)CCC7)cc6)c5n4)c3)C2)C1 [Compound 17]	12		17
CC(=O)N1CC2CC(C1)N2c1cccc(-c2ccc3nc(-c4cccnc4N)n(-c4ccc(C5(N)CCC5)cc4)c3n2)c1F [Compound 47]	81		
Nc1ncccc1-c1nc2ccc(-c3cccc(N4CCC(N5CCCCS5(=O)=O)CC4)c3F)nc2n1-c1ccc(C2(N)CCC2)cc1 [Compound 41]	10		41
C=CC(=O)Nc1ccc(-c2ccc3nc(-c4cccnc4N)n(-c4ccc(C5(N)CCC5)cc4)c3n2)cc1 [Compound 3]		6.5	20
Nc1ncccc1-c1nc2ccc(-c3cccc(N4CC5COCC5C4)c3)nc2n1-c1ccc(C2(N)CCC2)cc1 (centres unmarked) [Compound 18]		18	
Nc1ncccc1-c1nc2ccc(-c3cccc(N4CCC(N5CCCC5=O)CC4)c3)nc2n1-c1ccc(C2(N)CCC2)cc1 [Compound 21]	3		23
CC(=O)N1CCC2(CC1)CN(c1cccc(-c3ccc4nc(-c5cccnc5N)n(-c5ccc(C6(N)CCC6)cc5)c4n3)c1F)C2 [Compound 35]	5		12

SMILES	IC50 (LNcap cells; [1]) [nM]	IC50 (LNcap cells; [2]) [nM]	IC50 (AKT1 (S473)) [nM]
CN1CC2(CC1=O)CN(c1cccc(-c3ccc4nc(-c5cccnc5N)n(-c5ccc(C6(N)CCC6)cc5)c4n3)c1F)C2 [Compound 49]	4		
CC(=O)N(C)[C@@H]1CCN(c2cccc(-c3ccc4nc(-c5cccnc5N)n(-c5ccc(C6(N)CCC6)cc5)c4n3)c2)C1 [Compound 24]		41	
Nc1ncccc1-c1nc2ccc(-c3cccc(N4CC5(CCOCC5)C4)c3)nc2n1-c1ccc(C2(N)CCC2)cc1 [Compound 6]		15	54
CC(=O)N(C)[C@H]1CCN(c2cccc(-c3ccc4nc(-c5cccnc5N)n(-c5ccc(C6(N)CCC6)cc5)c4n3)c2)C1 [Compound 31]		28	
[2H]C1([2H])CC(N2CCCC2=O)CC([2H])([2H])N1c1cccc(-c2ccc3nc(-c4cccnc4N)n(-c4ccc(C5(N)CCC5)cc4)c3n2)c1F [Compound 38]	11		13
CC(=O)N(C)CCN(C)c1cccc(-c2ccc3nc(-c4cccnc4N)n(-c4ccc(C5(N)CCC5)cc4)c3n2)c1 [Compound 29]	46		
CN1CC2(CC1=O)CN(c1cccc(-c3ccc4nc(-c5cccnc5N)n(-c5ccc(C6(N)CCC6)cc5)c4n3)c1)C2 [Compound 33]	11		17
CC(=O)N1CC[C@@H](N(C)c2cccc(-c3ccc4nc(-c5cccnc5N)n(-c5ccc(C6(N)CCC6)cc5)c4n3)c2)C1 [Compound 7]		48	
C=CC(=O)NCc1cccc(-c2ccc3nc(-c4cccnc4N)n(-c4ccc(C5(N)CCC5)cc4)c3n2)c1 [Compound 2]	34		17
Nc1ncccc1-c1nc2ccc(-c3cccc(N4CCC(N5CCC(F)(F)C5=O)CC4)c3)nc2n1-c1ccc(C2(N)CCC2)cc1 [Compound 34]	2.9		25
CC(=O)N1C[C@@H]2CN(c3cccc(-c4ccc5nc(-c6cccnc6N)n(-c6ccc(C7(N)CCC7)cc6)c5n4)c3F)C[C@@H]2C1 [Compound 40]	19		
CC#CC(=O)N1CCCC1c1cccc(-c2ccc3nc(-c4cccnc4N)n(-c4ccc(C5(N)CCC5)cc4)c3n2)c1 (centres unmarked) [Compound 1]	16		34
CC(=O)N1CC2(C1)CN(c1cccc(-c3ccc4nc(-c5cccnc5N)n(-c5ccc(C6(N)CCC6)cc5)c4n3)c1)C2 [Compound 16]	8.7		19
CC(=O)N1CC2CN(c3cccc(-c4ccc5nc(-c6cccnc6N)n(-c6ccc(C7(N)CCC7)cc6)c5n4)c3)CC21 (centres unmarked) [Compound 26]	14		
CC1COC(=O)N1C1CCN(c2cccc(-c3ccc4nc(-c5cccnc5N)n(-c5ccc(C6(N)CCC6)cc5)c4n3)c2)CC1 (centres unmarked) [Compound 39]		11	42
Nc1ncccc1-c1nc2ccc(-c3cccc(N4CCCS4(=O)=O)c3)nc2n1-c1ccc(C2(N)CCC2)cc1 [Compound 20]	15		
Nc1ncccc1-c1nc2ccc(-c3cccc(N4CCN5C(=O)CCC5C4)c3)nc2n1-c1ccc(C2(N)CCC2)cc1 (centres unmarked) [Compound 9]	24		16
CC(=O)N1CC2(CCN(c3cccc(-c4ccc5nc(-c6cccnc6N)n(-c6ccc(C7(N)CCC7)cc6)c5n4)c3F)C2)C1 [Compound 36]	14		
